{
  "source": "patent US8993554B2",
  "about": "“Tetrahydroquinoline derivatives useful as bromodomain inhibitors” (GlaxoSmithKline LLC, priority 2011, dated 2015)",
  "note": "Where a name gives a salt, the structure may show the parent alone.",
  "data": [
    {"system": "LPS induced IL-6 secretion from whole blood", "test": "Measurement of LPS Induced IL-6 Secretion from Whole Blood", "assay_type": "cell-based", "conditions": "IL-6 by immunoassay, LPS 200 ng/ml, 24 hours", "method": "Activation of monocytic cells by agonists of toll-like receptors such as bacterial lipopolysaccharide (LPS) results in production of key inflammatory mediators including IL-6. Such pathways are widely considered to be central to the pathophysiology of a range of auto-immune and inflammatory disorders.\nCompounds to be tested are diluted to give a range of appropriate concentrations of which 1 μl of the diluted stocks is added to a 96 well plate. Following addition of whole blood (130 μl) the plates are incubated at 37 degrees (5% CO2) for 30 min before the addition of 10 μl of 2.8 ug/ml LPS, diluted in complete RPMI 1640 (final concentration=200 ng/ml), to give a total volume of 140 μl per well. After further incubation for 24 hours at 37 degrees, 140 μl of PBS are added to each well. The plates are sealed, shaken for 10 minutes and then centrifuged (2500 rpm×10 min). 100 μl of the supernatant are removed and IL-6 levels assayed by immunoassay (typically by MesoScale Discovery technology) either immediately or following storage at −20 degrees. Concentration response curves for each compound was generated from the data and an IC50 value was calculated.", "units": {"IC50": "µM"}, "values": [
      {"smiles": "CC(=O)N1c2ccc(-c3ccc(C(=O)NCCO)cc3)cc2[C@H](Nc2ccc(Cl)cc2)C[C@@H]1C", "note": "[Example 40, 4-((2S,4R)-1-acetyl-4-((4-chlorophenyl)amino)-2-methyl-1,2,3,4-tetrahydroquinolin-6-yl)-N-(2-hydroxyethyl)benzamide]", "IC50": "0.0501 to 3.16"},
      {"smiles": "CC(=O)N1c2ccc(-c3ccc(C(=O)NC[C@H](C)O)cc3)cc2[C@H](Nc2ccc(Cl)cc2)C[C@@H]1C", "note": "[Example 42, 4-((2S,4R)-1-acetyl-4-((4-chlorophenyl)amino)-2-methyl-1,2,3,4-tetrahydroquinolin-6-yl)-N—((S)-2-hydroxypropyl)benzamide]", "IC50": "0.0501 to 3.16"},
      {"smiles": "CC(=O)N1c2ccc(-c3ccc(C(=O)NCCN)cc3)cc2[C@H](Nc2ccc(Cl)cc2)C[C@@H]1C", "note": "[Example 44, 4-((2S,4R)-1-acetyl-4-((4-chlorophenyl)amino)-2-methyl-1,2,3,4-tetrahydroquinolin-6-yl)-N-(2-aminoethyl)benzamide]", "IC50": "0.0501 to 3.16"},
      {"smiles": "CC(=O)N1c2ccc(-c3ccc(C(=O)NCCN(C)C)cc3)cc2[C@H](Nc2ccccc2)C[C@@H]1C", "note": "[Example 45, 4-((2S,4R)-1-acetyl-2-methyl-4-(phenylamino)-1,2,3,4-tetrahydroquinolin-6-yl)-N-(2-(dimethylamino)ethyl)benzamide]", "IC50": "0.0501 to 3.16"},
      {"smiles": "CC(=O)N1c2ccc(-c3ccc(C(=O)NCCO)cc3)cc2[C@H](Nc2ccccc2)C[C@@H]1C", "note": "[Example 46, 4-((2S,4R)-1-acetyl-2-methyl-4-(phenylamino)-1,2,3,4-tetrahydroquinolin-6-yl)-N-(2-hydroxyethyl)benzamide]", "IC50": "0.0501 to 3.16"},
      {"smiles": "CC(=O)N1c2ccc(-c3ccc(C(=O)N4CCNCC4)nc3)cc2[C@H](Nc2ccc(C#N)cn2)C[C@@H]1C", "note": "[Example 48, 6-(((2S,4R)-1-acetyl-2-methyl-6-(6-(piperazine-1-carbonyl)pyridin-3-yl)-1,2,3,4-tetrahydroquinolin-4-yl)amino)nicotinonitrile]", "IC50": "0.0501 to 3.16"},
      {"smiles": "CC(=O)N1c2ccc(-c3ccc(C(=O)NCCO)nc3)cc2[C@H](Nc2cnc(C#N)cn2)C[C@@H]1C", "note": "[Example 49, 5-((2S,4R)-1-acetyl-4-((5-cyanopyrazin-2-yl)amino)-2-methyl-1,2,3,4-tetrahydroquinolin-6-yl)-N-(2-hydroxyethyl)picolinamide]", "IC50": "0.0501 to 3.16"},
      {"smiles": "CC(=O)N1c2ccc(-c3ccc(C(=O)N4CCOCC4)nc3)cc2[C@H](Nc2ccc(C)cn2)C[C@@H]1C", "note": "[Example 51, 1-((2S,4R)-2-methyl-4-((5-methylpyridin-2-yl)amino)-6-(6-(morpholine-4-carbonyl)pyridin-3-yl)-3,4-dihydroquinolin-1(2H)-yl)ethanone]", "IC50": "0.0501 to 3.16"},
      {"smiles": "CC(=O)N1c2ccc(-c3ccc(C(=O)N4CCOCC4)nc3)cc2[C@H](Nc2ccc(Cl)cn2)C[C@@H]1C", "note": "[Example 52, 1-((2S,4R)-4-((5-chloropyridin-2-yl)amino)-2-methyl-6-(6-(morpholine-4-carbonyl)pyridin-3-yl)-3,4-dihydroquinolin-1(2H)-yl)ethanone]", "IC50": "0.0501 to 3.16"},
      {"smiles": "CC(=O)N1c2ccc(-c3ccc(C(=O)N4CCOCC4)nc3)cc2[C@H](Nc2cnc(C)cn2)C[C@@H]1C", "note": "[Example 54, 1-((2S,4R)-2-methyl-4-((5-methylpyrazin-2-yl)amino)-6-(6-(morpholine-4-carbonyl)pyridin-3-yl)-3,4-dihydroquinolin-1(2H)-yl)ethanone]", "IC50": "0.0501 to 3.16"},
      {"smiles": "CC(=O)N1c2ccc(-c3ccc(C(=O)N4CCOCC4)cc3)cc2[C@H](Nc2ccc(C)cn2)C[C@@H]1C", "note": "[Example 56, 1-((2S,4R)-2-methyl-4-((5-methylpyridin-2-yl)amino)-6-(4-(morpholine-4-carbonyl)phenyl)-3,4-dihydroquinolin-1(2H)-yl)ethanone formate]", "IC50": "0.0501 to 3.16"},
      {"smiles": "CC(=O)N1c2ccc(-c3ccc(C(=O)N4CCOCC4)cn3)cc2[C@H](Nc2ccc(Cl)cn2)C[C@@H]1C", "note": "[Example 57, 1-((2S,4R)-4-((5-chloropyridin-2-yl)amino)-2-methyl-6-(5-(morpholine-4-carbonyl)pyridin-2-yl)-3,4-dihydroquinolin-1(2H)-yl)ethanone]", "IC50": "0.0501 to 3.16"},
      {"smiles": "CC(=O)N1c2ccc(-c3ccc(C(=O)N4CCOCC4)cn3)cc2[C@H](Nc2cnccn2)C[C@@H]1C", "note": "[Example 58, 1-((2S,4R)-2-methyl-6-(5-(morpholine-4-carbonyl)pyridin-2-yl)-4-(pyrazin-2-ylamino)-3,4-dihydroquinolin-1(2H)-yl)ethanone]", "IC50": "0.0501 to 3.16"},
      {"smiles": "CC(=O)N1c2ccc(-c3ccc(C(=O)N4CCOCC4)cn3)cc2[C@H](Nc2ccc(C)cn2)C[C@@H]1C", "note": "[Example 59, 1-((2S,4R)-2-methyl-4-((5-methylpyridin-2-yl)amino)-6-(5-(morpholine-4-carbonyl)pyridin-2-yl)-3,4-dihydroquinolin-1(2H)-yl)ethanone]", "IC50": "0.0501 to 3.16"},
      {"smiles": "CC(=O)N1c2ccc(-c3ccc(C(=O)N4CCOCC4)cn3)cc2[C@H](Nc2cnc(C)cn2)C[C@@H]1C", "note": "[Example 60, 1-((2S,4R)-2-methyl-4-((5-methylpyrazin-2-yl)amino)-6-(5-(morpholine-4-carbonyl)pyridin-2-yl)-3,4-dihydroquinolin-1(2H)-yl)ethanone]", "IC50": "0.0501 to 3.16"},
      {"smiles": "CC(=O)N1c2ccc(-c3ccc(C(=O)N4CCOCC4)cn3)cc2[C@H](Nc2ccccn2)C[C@@H]1C", "note": "[Example 61, 1-((2S,4R)-2-methyl-6-(5-(morpholine-4-carbonyl)pyridin-2-yl)-4-(pyridin-2-ylamino)-3,4-dihydroquinolin-1(2H)-yl)ethanone]", "IC50": "0.0501 to 3.16"},
      {"smiles": "CC(=O)N1c2ccc(-c3ccc(C(=O)N4CCOCC4)nc3)cc2[C@H](Nc2cccc(Cl)c2)C[C@@H]1C", "note": "[Example 62]", "IC50": "0.0501 to 3.16"},
      {"smiles": "CC(=O)N1c2ccc(-c3ccc(C(=O)N4CCOCC4)cn3)cc2[C@H](Nc2cccc(Cl)c2)C[C@@H]1C", "note": "[Example 63]", "IC50": "0.0501 to 3.16"},
      {"smiles": "CC(=O)N1c2ccc(-c3ccc(C(=O)N4CCOCC4)cn3)cc2[C@H](Nc2ccc(Cl)cc2)C[C@@H]1C", "note": "[Example 64, 1-((2S,4R)-4-((4-chlorophenyl)amino)-2-methyl-6-(5-(morpholine-4-carbonyl)pyridin-2-yl)-3,4-dihydroquinolin-1(2H)-yl)ethanone]", "IC50": "0.0501 to 3.16"},
      {"smiles": "CC(=O)N1c2ccc(-c3ccc(C(=O)N4CCOCC4)cc3)cc2[C@H](Nc2ccc(C#N)cn2)C[C@@H]1C", "note": "[Example 65, 6-(((2S,4R)-1-acetyl-2-methyl-6-(4-(morpholine-4-carbonyl)phenyl)-1,2,3,4-tetrahydroquinolin-4-yl)amino)nicotinonitrile]", "IC50": "0.0501 to 3.16"},
      {"smiles": "CC(=O)N1c2ccc(-c3ccc(C(=O)N4CCCC4)cc3)cc2[C@H](Nc2ccc(C)cn2)C[C@@H]1C", "note": "[Example 68, 1-((2S,4R)-2-methyl-4-((5-methylpyridin-2-yl)amino)-6-(4-(pyrrolidine-1-carbonyl)phenyl)-3,4-dihydroquinolin-1(2H)-yl)ethanone formate]", "IC50": "0.0501 to 3.16"}
    ]}
  ]
}
